The record followed here is patent publication US6949536B2, “Sulfonylbenzene compounds as anti-inflammatory/analgesic agents” (Pfizer, Inc., priority 1998, dated 2005).

Counter-ions that a name gives are not always drawn.

`CS(=O)(=O)c1ccc(-n2nc(C(N)=O)cc2-c2ccc(-c3ccco3)cc2)cc1F` [Example 132, 1-[3-Fluoro-4-(methylsulfonyl)phenyl]-5-[4-(2-furyl)phenyl]-1H-pyrazole-3-carboxamide] had a melting point of 239 to 240 °C. Under `CS(=O)(=O)c1ccc(-n2nc(C(F)(F)F)cc2-c2ccc(-c3cscn3)c(F)c2)cc1` (as salt: hydrochloride) [Example 124, 4-{2-Fluoro-4-[1-[4-(methylsulfonyl)phenyl]-3-(trifluoromethyl)-1H-pyrazol-5-yl]phenyl}-1,3-thiazole] stands 176 to 178 °C; under `COc1cc(-n2nc(C(F)(F)F)cc2-c2ccc(-c3ccco3)cc2)ccc1S(C)(=O)=O` (as salt: hydrochloride) [Example 136, 5-[4-(2-Furyl)phenyl]-1-[3-methoxy-4-(methylsulfonyl)phenyl]-3-trifluoromethyl-1H-pyrazole], 138.9 °C; under `CS(=O)(=O)c1ccc(-n2nc(C(F)(F)F)cc2-c2ccc(-n3ccnc3)cc2)cc1` [Example 66, 5-[4-(1-Imidazolyl)phenyl]-1-[4-(methylsulfonyl)phenyl]-3-trifluoromethyl-1H-pyrazol], 183 to 184 °C. Consider `CS(=O)(=O)c1ccc(-n2nc(C(F)(F)F)cc2-c2ccc(-c3ccsc3)cc2)cc1F` [Example 87, 1-[3-Fluoro-4-(methylsulfonyl)phenyl]-5-[4-(3-thienyl)phenyl]-3-(trifluoromethyl)-1H-pyrazole], for which the melting point is 72 to 74 °C. Next, `Cc1cc(-n2nc(C(F)(F)F)cc2-c2ccc(-c3ccco3)cc2)ccc1S(N)(=O)=O` (as salt: hydrochloride) [Example 143, 4-[5-[4-(2-Furyl)phenyl]-3-(trifluoromethyl)-1H-pyrazol-1-yl]-2-methylbenzenesulfonamide]: 137.4 °C; `NS(=O)(=O)c1ccc(-n2nc(C(F)(F)F)cc2-c2ccc(-c3ccco3)c(Cl)c2)cc1F` [Example 138, 4-[5-[3-Chloro-4-(2-furyl)phenyl]-3-(trifluoromethyl)-1H-pyrazol-1-yl]-2-fluorobenzenesulfonamide]: 171.8 °C; `Cc1cc(-c2nc(C(F)(F)F)cn2-c2ccc(S(C)(=O)=O)c(F)c2)ccc1-c1cscn1` [Example 178, 1-[3-Fluoro-4-(methylsulfonyl)phenyl]-2-[3-methyl-4-(4-thiazolyl)phenyl]-4-trifluoromethyl-1H-imidazole]: 197 to 198 °C. With `CONC(=O)c1cc(-c2ccc(-c3ccco3)cc2)n(-c2ccc(S(C)(=O)=O)c(F)c2)n1` (as salt: hydrochloride) [Example 134, N-Methoxy-1-[3-fluoro-4-(methylsulfonyl)phenyl]-5-[4-(2-furyl)phenyl]-1H-pyrazole-3-carboxamide], the melting point is 126 to 128 °C. Under `Cc1ccc(-c2ccc(S(C)(=O)=O)c(F)c2)n1-c1ccc(-c2cscn2)cc1` [Example 151, 5-[3-Fluoro-4-(methylsulfonyl)phenyl]-2-methyl-1-[4-(4-thiazolyl)phenyl]-1H-pyrrole] stands 215 °C; under `Cc1ccc(-c2ccc(S(C)(=O)=O)cc2)n1-c1ccc(-c2ccoc2)cc1` [Example 38, 5-[4-(Methylsulfonyl)phenyl]-1-[4-(3-furyl)phenyl]-2-methyl-1H-pyrrole], 200 to 202 °C.

Turning to `Cc1ccc(-c2ccc(S(C)(=O)=O)cc2)n1-c1ccc(-c2ccco2)cc1` [Example 44, 1-[4-(2-Furyl)phenyl]-2-methyl-5-[4-(methylsulfonyl)phenyl]-1H-pyrrole], the melting point is 145 to 147 °C. Next, `NS(=O)(=O)c1ccc(-n2nc(C(F)(F)F)cc2-c2ccc(-c3cscn3)c(F)c2)cc1F` (as salt: hydrochloride) [Example 114, 2-Fluoro-4-[5-[3-fluoro-4-(1,3-thiazol-4-yl)phenyl]-3-(trifluoromethyl)-1H-pyrazol-1-yl]benzenesulfonamide]: 196 to 198 °C; `Cc1cc(-c2cc(C(F)(F)F)nn2-c2ccc(S(C)(=O)=O)cc2)ccc1-c1cocn1` (as salt: hydrochloride) [Example 112, 4-{2-Methyl-4-[1-[4-(methylsulfonyl)phenyl]-3-(trifluoromethyl)-1H-pyrazol-5-yl]phenyl}-1,3-oxazole]: 148 to 150 °C. Next, `CS(=O)(=O)c1ccc(C2=C(c3ccc(-c4cccs4)cc3)C(=O)OC2)cc1` [Example 33, 3-[4-(2-Thienyl)phenyl]-4-[4-(methylsulfonyl)phenyl]-2-(5H)-furanone]: 198 to 201 °C. Under `COc1cc(-c2cc(C(F)(F)F)nn2-c2ccc(S(C)(=O)=O)cc2)ccc1-c1ccco1` (as salt: hydrochloride) [Example 81, 1-[4-(Methylsulfonyl)phenyl]-5-[4-(2-furyl)-3-methoxyphenyl]-3-(trifluoromethyl)-1H-pyrazole] stands 138 to 140 °C; under `CS(=O)(=O)c1ccc(-n2nc(C(F)(F)F)cc2-c2ccc(-c3cccs3)cc2)cc1F` [Example 86, 1-[3-Fluoro-4-(methylsulfonyl)phenyl]-5-[4-(2-thienyl)phenyl]-3-(trifluoromethyl)-1H-pyrazole], 75 to 76 °C; under `Cc1ccc(-c2ccc(S(C)(=O)=O)cc2)n1-c1ccc(-c2cccs2)cc1` [Example 45, 2-Methyl-5-[4-(methylsulfonyl)phenyl]-1-[4-(2-thienyl]phenyl]-1H-pyrrole], 185 to 186 °C.

In the case of `CS(=O)(=O)c1ccc(-n2nc(C(F)(F)F)cc2-c2ccc(-c3ccoc3)cc2)cc1F` [Example 85, 1-[3-Fluoro-4-(methylsulfonyl)phenyl]-5-[4-(3-furyl)phenyl]-3-(trifluoromethyl)-1H-pyrazole], the melting point fell in the range of 74 to 76 °C. Next, `Cc1ccc(-c2ccc(S(C)(=O)=O)cc2)n1-c1ccc(-c2ccc[nH]2)cc1` [Example 47, 2-Methyl-5-[4-(methylsulfonyl)phenyl]-1-[4-(2-pyrrolyl)phenyl]-1H-pyrrole]: 225 to 227 °C; `NS(=O)(=O)c1ccc(-n2nc(C(F)(F)F)cc2-c2ccc(-c3cscn3)c(O)c2)cc1F` (as salt: hydrochloride) [Example 174, 2-Fluoro-4-[5-[3-hydroxy-4-(1,3-thiazol-4-yl)phenyl]-3-(trifluoromethyl)-1H-pyrazol-1-yl]benzenesulfonamide]: 224 to 226 °C; `Cc1ccc(-c2ccc(S(C)(=O)=O)cc2)n1-c1ccc(-c2ccsc2)cc1` [Example 46, 2-Methyl-5-[4-(methylsulfonyl)phenyl]-1-[4-(3-thienyl)phenyl]-1H-pyrrole]: 187 to 188 °C. Next, `CS(=O)(=O)c1ccc(C2=C(c3ccc(-c4ccsc4)cc3)C(=O)OC2)cc1` [Example 32, 3-[4-(3-Thienyl)phenyl]4-[4-(methylsulfonyl)phenyl]-2-(5H)-furanone]: 220 to 222 °C; `CS(=O)(=O)c1ccc(-n2nc(C(F)(F)F)cc2-c2ccc(-c3ccco3)cc2)cc1C(F)(F)F` (as salt: hydrochloride) [Example 135, 5-[4-(2-Furyl)phenyl]-1-[4-(methylsulfonyl)-3-(trifluoromethyl)phenyl]-3-trifluoromethyl-1H-pyrazole]: 159 to 160 °C.

For orientation: melting point means the temperature of the solid-liquid transition.
